Data from patent US8623885B2, “Fused tricyclic dual inhibitors of CDK 4/6 and FLT3” (Amgen Inc., priority 2011, dated 2014).

Assays:
[1] = biological target: CDK4/Cyclin D1 (Homo sapiens (Human), UniProt P11802); experiment: CDK4 filtration kinase assay; assay type: biochemical; conditions: CDK4/Cyclin D1, Rb fragment substrate, [33P]-ATP filtration assay
Experimental: The CDK4 and CDK1 inhibitory activity of the CDK4/6-FLT3 inhibitors was determined with a filtration kinase assay. The compounds, kinase and substrate diluted in the kinase buffer (20 mM Tris, pH7.4, 50 mM NaCl, 1 mM DTT, 0.1% BSA) were sequentially added to a 96-well Multiscreen HTS filtration plate (Millipore). The final 100 μL reaction mixture in each well contained 0.3 μg of CDK4/Cyclin D1 or CDK1/Cyclin B (Cell Signaling Technology), 1 μg of Rb fragment (aa773-928, Millipore) for the CDK4 assay or 5 μg of histone H1 for the CDK1 assay and 1 μCi of [^33P]-ATP. The mixture was incubated at room temperature for 1 hour. The proteins in the reaction were then precipitated and washed with cold TCA solution using an aspiration/filtration vacuum system. The plates were dried at room temperature, and the retained radioactivity was measured by scintillation counting.
(§1) IC50 values of the compounds in the above assays were determined by non-linear regression analysis using Prism (GraphPad Software).

[2] = test system: MOLM13 cells; experiment: [14C]-thymidine incorporation cell proliferation assay, MOLM13; assay type: cell-based, human
Experimental: The cell proliferation inhibition potency of the CDK4/6-FLT3 inhibitors was determined by using a [^14C]-thymidine incorporation assay. Exponentially growing cells (MOLM-13, Colo-205, etc.) were seeded in a 96-well Cytostar T plate (GE Healthcare Biosciences) at a density of 5×10^3 cells/well and incubated overnight. Serially diluted compounds and 0.1 μCi of [^14C]-thymidine (GE Healthcare Biosciences) were added to each well on the following day. After 72 hour incubation, isotope incorporation was determined with a β plate counter (Wallac). MOLM13 is a human AML tumor cell line expressing FLT3, FLT3^ITD and wild type Rb.
as §1

[3] = biological target: FLT3 enzyme (GST-FLT3 fusion) (Homo sapiens (Human), UniProt P36888); experiment: FLT3 HTRF kinase assay; assay type: biochemical; conditions: 116 μM ATP
Experimental: The FLT3 inhibitory activity of the CDK4/6-FLT3 inhibitors was determined with a HTRF kinase assay. The FLT3 enzyme (GST-FLT3 fusion) was purchased from Carna Biosciences. An ULight-labeled synthetic peptide derived from human Janus kinase 1 (aa1015-1027, ULight-JAK1, PerkinElmer) was utilized as the phosphoacceptor substrate. The assay was conducted in a 384-well white OptiPlate (PerkinElmer). The 20 μL reaction mixture contained 50 nM ULight-JAK1, 116 μM ATP, 0.0385 ng/μL FLT3 and dilutions of test compounds in the kinase buffer (50 mM Hepes, pH 7.6, 1 mM EGTA, 10 mM MgCl2, 2 mM DTT, and 0.005% Tween 20). The reaction was allowed to proceed for 1 hour at room temperature and was stopped by adding 20 μL of 10 mM EDTA, 2 nM LANCE® Eu-W1024 anti-phospho-tyrosine antibody in LANCE® detection buffer (PerkinElmer). The plates were incubated at room temperature for 2 hours after addition of detection reagents and then read on an Envision multimode reader (PerkinElmer).
as §1

[4] = Homo sapiens, MOLM-13, 72 hour incubation

FLT3 enzyme (GST-FLT3 fusion), sequence (P36888 27-993): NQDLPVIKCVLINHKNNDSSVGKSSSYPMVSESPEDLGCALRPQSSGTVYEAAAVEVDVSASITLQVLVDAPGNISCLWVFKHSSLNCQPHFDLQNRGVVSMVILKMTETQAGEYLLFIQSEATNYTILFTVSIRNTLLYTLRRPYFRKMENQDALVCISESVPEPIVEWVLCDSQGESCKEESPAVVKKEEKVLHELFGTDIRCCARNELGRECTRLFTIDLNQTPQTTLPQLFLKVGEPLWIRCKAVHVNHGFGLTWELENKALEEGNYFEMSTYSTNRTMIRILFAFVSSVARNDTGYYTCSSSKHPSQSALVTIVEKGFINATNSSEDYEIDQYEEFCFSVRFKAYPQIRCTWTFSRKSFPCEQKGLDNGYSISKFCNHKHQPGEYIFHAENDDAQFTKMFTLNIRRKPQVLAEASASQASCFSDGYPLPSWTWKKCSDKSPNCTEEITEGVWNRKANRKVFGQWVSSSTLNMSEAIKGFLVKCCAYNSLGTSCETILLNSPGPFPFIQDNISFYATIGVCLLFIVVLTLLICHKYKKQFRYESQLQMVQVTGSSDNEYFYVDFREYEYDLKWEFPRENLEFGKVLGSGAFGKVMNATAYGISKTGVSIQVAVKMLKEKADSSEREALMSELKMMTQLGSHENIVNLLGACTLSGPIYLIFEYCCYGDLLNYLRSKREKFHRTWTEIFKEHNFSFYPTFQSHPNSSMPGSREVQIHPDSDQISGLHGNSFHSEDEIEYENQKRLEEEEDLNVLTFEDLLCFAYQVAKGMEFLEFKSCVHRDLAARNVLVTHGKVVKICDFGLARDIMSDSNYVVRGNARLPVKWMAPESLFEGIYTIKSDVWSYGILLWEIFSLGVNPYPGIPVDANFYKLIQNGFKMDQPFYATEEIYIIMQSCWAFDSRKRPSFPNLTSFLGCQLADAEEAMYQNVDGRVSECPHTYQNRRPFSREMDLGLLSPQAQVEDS
CDK4/Cyclin D1, sequence (P11802 whole entry, the tested form may be a part): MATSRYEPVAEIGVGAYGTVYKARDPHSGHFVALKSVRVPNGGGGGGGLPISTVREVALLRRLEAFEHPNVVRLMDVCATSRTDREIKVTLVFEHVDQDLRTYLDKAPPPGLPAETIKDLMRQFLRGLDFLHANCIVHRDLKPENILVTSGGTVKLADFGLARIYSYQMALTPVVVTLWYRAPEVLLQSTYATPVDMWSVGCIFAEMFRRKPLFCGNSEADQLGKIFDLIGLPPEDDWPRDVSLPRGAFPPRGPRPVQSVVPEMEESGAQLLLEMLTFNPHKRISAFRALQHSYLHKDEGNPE
CDK4/Cyclin D1, sequence (P24385 whole entry partner, the tested form may be a part): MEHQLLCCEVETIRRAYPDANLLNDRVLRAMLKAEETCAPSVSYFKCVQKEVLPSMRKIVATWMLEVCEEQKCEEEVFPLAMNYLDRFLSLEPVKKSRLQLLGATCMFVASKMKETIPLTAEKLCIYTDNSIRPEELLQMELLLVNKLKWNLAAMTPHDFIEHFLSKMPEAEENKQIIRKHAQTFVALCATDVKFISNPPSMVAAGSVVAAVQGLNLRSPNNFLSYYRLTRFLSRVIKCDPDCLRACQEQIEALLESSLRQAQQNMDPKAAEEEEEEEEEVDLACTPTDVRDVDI

| Structure (SMILES) | IC50 [1] | IC50 [2, 4] | IC50 [3] | IC50 ([2]; 72 hour incubation) |
| --- | --- | --- | --- | --- |
| C[C@H]1CC[C@H](n2c3cnccc3c3cnc(Nc4ccc5c(n4)CNCC5)nc32)CC1 [Example 23, 9-((1r,4r)-4-Methylcyclohexyl)-N-(5,6,7,8-tetrahydro-1,7-naphthyridin-2-yl)-9H-pyrido[4′,3′:4,5]pyrrolo[2,3-d]pyrimidin-2-amine] | 8.6 nM | 1.5 nM | – | – |
| C[C@H]1CC[C@H](n2c3cnccc3c3cnc(Nc4ccc5c(n4)CCN(CCC(F)(F)F)C5)nc32)CC1 [Example 7, 9-((1r,4r)-4-Methylcyclohexyl)-N-(6-(3,3,3-trifluoropropyl)-5,6,7,8-tetrahydro-1,6-naphthyridin-2-yl)-9H-pyrido[4′,3′:4,5]pyrrolo[2,3-d]pyrimidin-2-amine] | – | 206 nM | 21.4 nM | – |
| CC(=O)N1Cc2ccc(Nc3ncc4c5ccncc5n([C@H]5CC[C@H](C)CC5)c4n3)nc2[C@@H](C)C1 (single isomer, unassigned) [Example 18b, 1-((R)-8-Methyl-2-((9-((1 r,4R)-4-methylcyclohexyl)-9H-pyrido[4′,3′:4,5]pyrrolo[2,3-d]pyrimidin-2-yl)amino)-7,8-dihydro-1,6-naphthyridin-6(5H)-yl)ethanone or 1-((S)-8-methyl-2-09-((1r,4S)-4-methylcyclohexyl)-9H-pyrido[4′,3′:4,5]pyrrolo[2,3-d]pyrimidin-2-yl)amino)-7,8-dihydro-1,6-naphthyridin-6(5H)-yl)ethanone] | 463 nM | – | 2.3 nM | 20 nM |
| COCCN1CCc2nc(Nc3ncc4c5ccncc5n([C@H]5CC[C@H](C)CC5)c4n3)ccc2C1 [Example 10, N-(6-(2-Methoxyethyl)-5,6,7,8-tetrahydro-1,6-naphthyridin-2-yl)-9-((1r,4r)-4-methylcyclohexyl)-9H-pyrido[4′,3′:4,5]pyrrolo[2,3-d]pyrimidin-2-amine] | 10.5 nM | 33.2 nM | 1.7 nM | – |
| C[C@H]1CC[C@H](n2c3cnccc3c3cnc(Nc4cc5c(cn4)CCNC5)nc32)CC1 [Example 11, 9-((1r,4r)-4-Methylcyclohexyl)-N-(5,6,7,8-tetrahydro-2,6-naphthyridin-3-yl)-9H-pyrido[4′,3′:4,5]pyrrolo[2,3-d]pyrimidin-2-amine] | 257 nM | > 3000 nM | 73.7 nM | – |
| C[C@H]1CC[C@H](n2c3cnccc3c3cnc(Nc4ccc5c(n4)CCNC5)nc32)CC1 [Example 1, 9-((1r,4r)-4-Methylcyclohexyl)-N-(5,6,7,8-tetrahydro-1,6-naphthyridin-2-yl)-9H-pyrido[4′,3′:4,5]pyrrolo[2,3-d]pyrimidin-2-amine] | 2.1 nM | 15.2 nM | 1.3 nM | – |
| C[C@H]1CC[C@H](n2c3cnccc3c3cnc(Nc4ccc5c(n4)C(O)CN(CCO)C5)nc32)CC1 (stereo partly shown) [Example 17, 6-(2-Hydroxyethyl)-2-((9-((1r,4r)-4-methylcyclohexyl)-9H-pyrido[4′,3′:4,5]pyrrolo[2,3-d]pyrimidin-2-yl)amino)-5,6,7,8-tetrahydro-1,6-naphthyridin-8-ol] | – | 21.9 nM | – | – |
| COc1cc2c3cnc(Nc4ccc5c(n4)CCN(C(=O)CO)C5)nc3n([C@H]3CC[C@H](C)CC3)c2cn1 [Example 20, 2-Hydroxy-1-(2-((6-methoxy-9-((1r,4r)-4-methylcyclohexyl)-9H-pyrido[4′,3′:4,5]-pyrrolo[2,3-d]pyrimidin-2-yl)amino)-7,8-dihydro-1,6-naphthyridin-6(5H)-yl)ethanone] | 847 nM | 208 nM | 144 nM | – |
| C[C@H]1CC[C@H](n2c3cnccc3c3cnc(Nc4ccc5c(n4)CCN(CCCO)C5)nc32)CC1 [Example 4, 3-(2-((9-((1r,4r)-4-Methylcyclohexyl)-9H-pyrido[4′,3′:4,5]pyrrolo[2,3-d]pyrimidin-2-yl)amino)-7,8-dihydro-1,6-naphthyridin-6(5H)-yl)propan-1-ol] | 4.6 nM | 21.1 nM | 2 nM | – |
| CCN(CC)CC(=O)N1CCc2nc(Nc3ncc4c5ccncc5n([C@H]5CC[C@H](C)CC5)c4n3)ccc2C1 [Example 37, 2-(Diethylamino)-1-(2-((9-((1r,4r)-4-methylcyclohexyl)-9H-pyrido[4′,3′:4,5]pyrrolo[2,3-d]pyrimidin-2-yl)amino)-7,8-dihydro-1,6-naphthyridin-6(5H)-yl)ethanone] | 3 nM | 1.4 nM | – | – |
| C[C@@H](O)C(=O)N1CCc2nc(Nc3ncc4c5ccncc5n([C@H]5CC[C@H](C)CC5)c4n3)ccc2C1 [Example 33, (R)-2-hydroxy-1-(2-((9-((1r,4r)-4-methylcyclohexyl)-9H-pyrido[4′,3′:4,5]pyrrolo[2,3-d]pyrimidin-2-yl)amino)-7,8-dihydro-1,6-naphthyridin-6(5H)-yl)propan-1-one] | 41 nM | 3.1 nM | – | – |
| CC(C)(C)OC(=O)N1CCc2cc(Nc3ncc4c5ccncc5n([C@H]5CC[C@H](C)CC5)c4n3)ncc2C1 [Example 36, tert-Butyl 6-((9-((1r,4r)-4-methylcyclohexyl)-9H-pyrido[4′,3′:4,5]pyrrolo[2,3-d]pyrimidin-2-yl)amino)-3,4-dihydro-2,7-naphthyridine-2(1H)-carboxylate] | 350 nM | – | – | – |
| C[C@H]1CC[C@H](n2c3cnccc3c3cnc(Nc4cc5c(cn4)CNCC5)nc32)CC1 [Example 24, 9-((1r,4r)-4-Methylcyclohexyl)-N-(5,6,7,8-tetrahydro-2,7-naphthyridin-3-yl)-9H-pyrido[4′,3′:4,5]pyrrolo[2,3-d]pyrimidin-2-amine] | 4.7 nM | 3.5 nM | – | – |
| CN(C)CC(=O)N1CCc2nc(Nc3ncc4c5ccncc5n([C@H]5CC[C@H](C)CC5)c4n3)ccc2C1 [Example 34, 2-(Dimethylamino)-1-(2-((9-((1r,4r)-4-methylcyclohexyl)-9H-pyrido[4′,3′:4,5]pyrrolo[2,3-d]pyrimidin-2-yl)amino)-7,8-dihydro-1,6-naphthyridin-6(5H)-yl)ethanone] | 3 nM | 0.3 nM | – | – |
| CC(C)(C)OC(=O)N1CCc2ccc(Nc3ncc4c5ccncc5n([C@H]5CC[C@H](C)CC5)c4n3)nc2C1 [Example 35, tert-Butyl 2-((9-((1r,4r)-4-methylcyclohexyl)-9H-pyrido[4′,3′:4,5]pyrrolo[2,3-d]pyrimidin-2-yl)amino)-5,6-dihydro-1,7-naphthyridine-7(8H)-carboxylate] | 26 nM | 480 nM | – | – |
| C[C@H]1CC[C@H](n2c3cnccc3c3cnc(Nc4cc5c(cn4)CN(C(=O)CO)CC5)nc32)CC1 [Example 31, 2-Hydroxy-1-(6-((9-((1r,4r)-4-methylcyclohexyl)-9H-pyrido[4′,3′:4,5]pyrrolo[2,3-d]pyrimidin-2-yl)amino)-3,4-dihydro-2,7-naphthyridin-2(1H)-yl)ethanone] | 35 nM | 6.7 nM | – | – |
| C[C@H](O)C(=O)N1CCc2nc(Nc3ncc4c5ccncc5n([C@H]5CC[C@H](C)CC5)c4n3)ccc2C1 [Example 32, (S)-2-Hydroxy-1-(2-((9-((1r,4r)-4-methylcyclohexyl)-9H-pyrido[4′,3′:4,5]pyrrolo[2,3-d]pyrimidin-2-yl)amino)-7,8-dihydro-1,6-naphthyridin-6(5H)-yl)propan-1-one] | 12 nM | 1.8 nM | – | – |
| C[C@H]1CC[C@H](n2c3cnccc3c3cnc(Nc4ccc5c(n4)CN(C(=O)CO)CC5)nc32)CC1 [Example 30, 2-Hydroxy-1-(2-((9-((1r,4r)-4-methylcyclohexyl)-9H-pyrido[4′,3′:4,5]pyrrolo[2,3-d]pyrimidin-2-yl)amino)-5,6-dihydro-1,7-naphthyridin-7(8H)-yl)ethanone] | 6.3 nM | 3 nM | – | – |
